Results taken from BindingDB's records for doi:10.1021/jm00107a034 (Sterling Research Group, 1991).

What was measured:
[1] = Concentration required to inhibit 50% activity of prostaglandin synthetase was determined in vitro in mouse brain microsomes
[2] = Concentration required to inhibit 50% activity of prostaglandin synthetase was determined in mouse vas deferens

Compound | IC50 [1] [µM] | IC50 [2] [µM]
COc1ccc(C(=O)c2cn(CCN3CCOCC3)c3ccccc23)cc1 | > 30 | 5
COc1ccc(C(=O)c2c(C)n(CCN3CCOCC3)c3ccccc23)cc1 [(s-cis) -(4-Methoxy-phenyl)-[2-methyl-1-(2-morpholin-4-yl-ethyl)-1H-indol-3-yl]-methanone] |  | > 30
Cc1c(C(=O)c2cccc3ccccc23)c2ccccc2n1CCN1CCOC(O)C1 (centres undefined) |  | 0.57
